Measurements published in US10662183B2, “Inhibitors of myocardin-related transcription factor and serum response factor (MRTF/SRF)-mediated gene transcription and methods for use of the same” (THE REGENTS OF THE UNIVERSITY OF MICHIGAN, priority 2014, dated 2020).

Test system: SRE.L-firefly luciferase reporter (Rho/MKL1 pathway) in PC-3 prostate cancer cells
Test: SRE.L-luciferase reporter assay
Format: cell-based
Settings: PC-3 cells transfected with Gα12Q231L, SRE.L and pRL-TK reporters, compound 19 hrs
Protocol: Seed PC-3 prostate cancer cells (40,000 cells/well) were grown in 96-well plates in 10% FBS containing DMEM medium. Cells were transiently transfected with the Ga12QL activator of the Rho/MKL1 pathway, along with the SRE.L-firefly luciferase reporter construct for 6 hours. Additionally, cells were co-transfected with the TK-Renilla luciferase reporter as an indicator of non-specific compound effects. Various concentrations of the compounds disclosed herein were added to the 96-well plates. Plates were incubated for 19 hours at 37° C. and 5% C02 in 0.5% FBS containing DMEM medium. Cells were lysed with IX Passive Lysis Buffer (Promega). Plates were incubated for 30 minutes at room temperature. Luminescence counts were read with a Victor2 (Perkin-Elmer) plate reader.
One hour prior to cell lysis for the dual luciferase assay, 10 μl: per well of WST1 reagent (Roche) was added to the 96-well plates. Plates were incubated for 1 hour at 37° C. and 5% CO2. Cell viability was measured by WST1 absorbance at 450 nm with a Victor2 (Perkin-Elmer) plate reader.
Biological activity of the compounds disclosed herein were assessed in the SRE.L luciferase reporter assay. PC-3 prostate cancer cells were co-transfected with 2 ng of the Gα12Q231L expression plasmid along with 50 ng of the SRE.L and 7 ng of the pRL-TK luciferase reporter plasmids, as described in the Materials and Methods section. Cells were treated with 0 (vehicle, DMSO alone), 1, 3, 10, 30, and 100 μM of a compound disclosed herein for 19 hrs after transfection before lysis. Luminescence was determined as described in the Materials and Methods section. Just before cell lysis, the viability of the cells was measured using the WST-1 cell proliferation reagent as described in the Materials and Methods section. Data are expressed as percentage of inhibition (DMSO alone=0%). The experiments were performed three separate times to achieve n=3 in triplicate.

IC50 (19 h) [µM]	Compound	IC50 [µM]
0.58	O=C(Nc1ccc(Cl)cc1)C1CN(C(=O)c2cccc(-c3ccco3)c2)CC(F)(F)C1 (stereo not shown) [Example E-019, N-(4-chlorophenyl)-5,5-difluoro-1-(3-(furan-2-yl)benzoyl)piperidine-3-carboxamide]	
1.9	C=C1CC(C(=O)Nc2ccc(Cl)cc2)CN(C(=O)c2cccc(-c3ccco3)c2)C1 (stereo not shown) [Example E-020, N-(4-chlorophenyl)-1-(3-(furan-2-yl)benzoyl)-5-methylenepiperidine-3-carboxamide]	
4.4	COC1(OC)CC(C(=O)Nc2ccc(Cl)cc2)CN(C(=O)c2cccc(-c3ccco3)c2)C1 (stereo not shown) [Example E-021, N-(4-chlorophenyl)-1-(3-(furan-2-yl)benzoyl)-5,5-dimethoxypiperidine-3-carboxamide]	
4.9	O=C(Nc1ccc(Cl)cc1)C1CCCN(C(=O)c2cncc(-c3ccco3)c2)C1 (stereo not shown) [Example E-023, N-(4-chlorophenyl)-1-(5-(furan-2-yl)nicotinoyl)piperidine-3-carboxamide]	
4.3	O=C(Nc1ccc(Cl)cc1)C1CCCN(C(=O)c2cc(-c3ccco3)ccn2)C1 (stereo not shown) [Example E-024, N-(4-chlorophenyl)-1-(4-(furan-2-yl)picolinoyl)piperidine-3-carboxamide]	
0.81	O=C(Nc1ccc(Cl)cc1)C1CN(C(=O)c2cc(-c3ccco3)ccn2)CC(F)(F)C1 (stereo not shown) [Example E-025, N-(4-chlorophenyl)-5,5-difluoro-1-{[4-(furan-2-yl)pyridin-2-yl]carbonyl}piperidine-3-carboxamide]	
5.3	O=C(Nc1ccc(Cl)cc1)C1CN(C(=O)c2cncc(-c3ccco3)c2)CC(F)(F)C1 (stereo not shown) [Example E-026, N-(4-chlorophenyl)-5,5-difluoro-1-{[5-(furan-2-yl)pyridin-3-yl]carbonyl}piperidine-3-carboxamide]	
12.5	O=C(Nc1ccc(Cl)cc1)C1CC(O)CN(C(=O)c2cccc(-c3ccco3)c2)C1 (stereo not shown) [Example E-027, N-(4-chlorophenyl)-1-{[3-(furan-2-yl)phenyl]carbonyl}-5-hydroxypiperidine-3-carboxamide]	
5	CC1(C(=O)Nc2ccc(Cl)cc2)CCCN(C(=O)c2cccc(-c3ccco3)c2)C1 (stereo not shown) [Example E-028, N-(4-chlorophenyl)-1-(3-(furan-2-yl)benzoyl)-3-methylpiperidine-3-carboxamide]	
3.1	Cc1ccc(-c2cccc(C(=O)N3CCCC(C(=O)Nc4ccc(Cl)cc4)C3)c2)o1 (stereo not shown) [Example E-029, N-(4-chlorophenyl)-1-(3-(5-methylfuran-2-yl)benzoyl)piperidine-3-carboxamide]	
6.1	O=C(Nc1ccc(Cl)cc1)C1CCCN(C(=O)c2cccc(-n3cccn3)c2)C1 (stereo not shown) [Example E-030, 1-(3-(1H-pyrazol-1-yl)benzoyl)-N-(4-chlorophenyl)piperidine-3-carboxamide]	
3.4	O=C(Nc1ccc(Cl)cc1)C1CCCN(C(=O)c2cccc(-c3cn[nH]c3)c2)C1 (stereo not shown) [Example E-031, 1-(3-(1H-pyrazol-4-yl)benzoyl)-N-(4-chlorophenyl)piperidine-3-carboxamide]	
3.2	O=C(Nc1ccc(Cl)cc1)C1CCCN(C(=O)c2cccc(-c3cc[nH]n3)c2)C1 (stereo not shown) [Example E-032, 1-(3-(1H-pyrazol-3-yl)benzoyl)-N-(4-chlorophenyl)piperidine-3-carboxamide]	
2.7	COc1ccc2nc(C(=O)N3CCCC(C(=O)Nc4ccc(Cl)cc4)C3)[nH]c2c1 (stereo not shown) [Example E-033, N-(4-chlorophenyl)-1-(6-methoxy-1H-benzo[d]imidazole-2-carbonyl)piperidine-3-carboxamide]	
> 100	O=C(Nc1ccc(Cl)cc1)C1CCCN(C(=O)c2cc(-c3ccco3)ncn2)C1 (stereo not shown) [Example E-034, N-(4-chlorophenyl)-1-(6-(furan-2-yl)pyrimidine-4-carbonyl) piperidine-3-carboxamide]	
8	Cn1c(C(=O)N2CCCC(C(=O)Nc3ccc(Cl)cc3)C2)nc2ccccc21 (stereo not shown) [Example E-035, N-(4-chlorophenyl)-1-(1-methyl-1H-benzo[d]imidazole-2-carbonyl)piperidine-3-carboxamide]	
> 100	O=C(Nc1ccc(Cl)cc1)C1CCCN(C(=O)c2cnc(Br)s2)C1 (stereo not shown) [Example E-036, 1-(2-bromothiazole-5-carbonyl)-N-(4-chlorophenyl) piperidine-3-carboxamide]	

IC50 (19 h) [µM]	Compound	IC50 [µM]
18	O=C(Nc1ccc(Cl)cc1)C1CCCN(C(=O)c2cnc(-c3ccco3)s2)C1 (stereo not shown) [Example E-037, N-(4-chlorophenyl)-1-(2-(furan-2-yl)thiazole-5-carbonyl)piperidine-3-carboxamide]	
6.5	O=C(Nc1ccc(Cl)cc1)C1CCCN(C(=O)c2csc(-c3ccco3)n2)C1 (stereo not shown) [Example E-038, N-(4-chlorophenyl)-1-(2-(furan-2-yl)thiazole-4-carbonyl) piperidine-3-carboxamide]	
43	O=C(Nc1ccc(Cl)cc1)C1CCCN(C(=O)c2cc(-c3ccco3)on2)C1 (stereo not shown) [Example E-039, N-(4-chlorophenyl)-1-(5-(furan-2-yl)isoxazole-3-carbonyl) piperidine-3-carboxamide]	
8.1	O=C(Nc1ccc(Cl)cc1)C1CCCN(C(=O)c2cc(-c3ccco3)[nH]n2)C1 (stereo not shown) [Example E-040, N-(4-chlorophenyl)-1-(5-(furan-2-yl)-1H-pyrazole-3-carbonyl)piperidine-3-carboxamide]	
0.83	O=C(Nc1ccc(Cl)cc1)C1CN(C(=O)c2cc(F)cc(-c3ccncc3)c2)CC(F)(F)C1 (stereo not shown) [Example E-041, N-(4-chlorophenyl)-5,5-difluoro-1-(3-fluoro-5-(pyridin-4-yl)benzoyl)piperidine-3-carboxamide]	
0.91	O=C(Nc1ccc(Cl)cc1)C1CN(C(=O)c2cncc(-c3ccncc3)c2)CC(F)(F)C1 (stereo not shown) [Example E-042, 1-([3,4′-bipyridine]-5-carbonyl)-N-(4-chlorophenyl)-5,5-difluoropiperidine-3-carboxamide]	
5	NC1CC(C(=O)Nc2ccc(Cl)cc2)CN(C(=O)c2cccc(-c3ccco3)c2)C1 (stereo not shown) [Example E-043, 5-amino-N-(4-chlorophenyl)-1-(3-(furan-2-yl)benzoyl)piperidine-3-carboxamide]	
2.2	CNC1CC(C(=O)Nc2ccc(Cl)cc2)CN(C(=O)c2cccc(-c3ccco3)c2)C1 (stereo not shown) [Example E-044, N-(4-chlorophenyl)-1-(3-(furan-2-yl)benzoyl)-5-(methylamino)piperidine-3-carboxamide]	
0.31	Cn1cncc1-c1cccc(C(=O)N2CC(C(=O)Nc3ccc(Cl)cc3)CC(F)(F)C2)c1 (stereo not shown) [Example E-047, N-(4-chlorophenyl)-5,5-difluoro-1-(3-(1-methyl-1H-imidazol-5-yl)benzoyl)piperidine-3-carboxamide]	
0.047	O=C(Nc1ccc(Cl)cc1)C1CC(NCc2ccccc2)CN(C(=O)c2cccc(-c3ccco3)c2)C1 (stereo not shown) [Example E-048, 5-(benzylamino)-N-(4-chlorophenyl)-1-(3-(furan-2-yl)benzoyl)piperidine-3-carboxamide]	
6.3	CCC(=O)NC1CC(C(=O)Nc2ccc(Cl)cc2)CN(C(=O)c2cccc(-c3ccco3)c2)C1 (stereo not shown) [Example E-049, N-(4-chlorophenyl)-1-(3-(furan-2-yl)benzoyl)-5-propionamidopiperidine-3-carboxamide]	
1.1	O=C(Nc1ccc(Cl)cc1)C1CN(C(=O)c2cccc(-c3ncccn3)c2)CC(F)(F)C1 (stereo not shown) [Example E-050, N-(4-chlorophenyl)-5,5-difluoro-1-(3-(pyrimidin-2-yl)benzoyl)piperidine-3-carboxamide]	
3.3	O=C(c1cccc(-c2cn[nH]c2)c1)N1CC(COc2ccc(Cl)cc2)CC(F)(F)C1 (stereo not shown) [Example E-051, (3-(1H-pyrazol-4-yl)phenyl)(5-((4-chlorophenoxy)methyl)-3,3-difluoropiperidin-1-yl)methanone]	
1.6	O=C(Nc1ccc(Cl)cc1)C1CN(C(=O)c2cccc(-c3ccco3)c2)CCS1 (stereo not shown) [Example E-052, N-(4-chlorophenyl)-4-(3-(furan-2-yl)benzoyl) thiomorpholine-2-carboxamide]	
6.8	O=C(Nc1ccc(Cl)cc1)C1CN(C(=O)c2cccc(-c3ccco3)c2)CCS1(=O)=O (stereo not shown) [Example E-053, N-(4-chlorophenyl)-4-(3-(furan-2-yl)benzoyl) thiomorpholine-2-carboxamide 1,1-dioxide]	
	O=C(NC1CC(C(=O)Nc2ccc(Cl)cc2)CN(C(=O)c2cccc(-c3ccco3)c2)C1)Oc1ccccc1 (stereo not shown) [Example E-056, phenyl (5-((4-chlorophenyl)carbamoyl)-1-(3-(furan-2-yl)benzoyl)piperidin-3-yl)carbamate]	38
22	COC(=O)NC1CC(C(=O)Nc2ccc(Cl)cc2)CN(C(=O)c2cccc(-c3ccco3)c2)C1 (stereo not shown) [Example E-057, methyl (5-((4-chlorophenyl)carbamoyl)-1-(3-(furan-2-yl)benzoyl)piperidin-3-yl)carbamate]	
